US3957785A, “Bβ-Pyrimidino-aminomethyl-10α-ergoline and 10α-methoxyergoline derivatives” (priority 1971, dated 1976)
Values joined by “and” are separate entries in the source; they are usually repeats but may differ in a detail not shown here. Identical values can stand only once. Like-named read-outs stand apart in the source and are kept apart here.

Experiments:
hypertensive rat = assay: hypotensive activity on the hypertensive rat; type: in vivo; settings: po, read-out: Hypotensive Activity, Active Dose (dose causing a pressure drop of about 30-40 mmHg)
Description: The hypotensive activity was tested on the hypertensive rat; the reported data being the dose, expressed in mg/kg per os, which causes a pressure drop of about 30-40 mmHg.

[1] = analgesic activity, writhing test; type: in vivo; settings: for Analgesic Activity, Writhing, relative to D-propoxyphene: D-propoxyphene assigned the value of 1; for Analgesic Activity, Writhing, relative to morphine: morphine assigned the value of 1
Description: (§1) The analgesic activity was evaluated by means of the hot plate test and the writhing test, the data being given in comparison with morphine and D-propoxyphene.
(§2) In the hot plate and writhing tests, the comparison compounds morphine and D-propoxyphene have been arbitrarily assigned the value of 1. Thus, in the hot plate test, the compound 1,6-dimethyl-8β-(2-pyrimidino-aminomethyl)-10α-ergoline has the same activity as both morphine and D-propoxyphene, while in the writhing test that compound has 1/2 the activity of morphine and 5 times the activity of D-propoxyphene.

[2] = system: isolated guinea pig seminal vescicle; assay: inhibition of the spasmogen effect caused by adrenaline on isolated guinea pig seminal vescicle (adrenolytic activity in vitro); design: unit: μg/ml; settings: isolated guinea pig seminal vescicle in physiological solution
Description: The compounds of the present invention have a high and prolonged adrenolytic activity and a low toxicity and are therefore useful in therapy. This adrenolytic activity was tested on several of the present compounds in vitro in comparison with dihydroergotamine on isolated guinea pig seminal vescicle suspended in a physiological solution.
Table 1 reports the values of concentrations, in μg/ml., which are able to produce a 50% inhibition (IC50) of the spasmogen effect caused by adrenaline.

[3] = system: lethal effects caused by adrenaline; assay: adrenolytic activity in vivo on the rat: reduction of lethal effects caused by adrenaline; settings: read-out: ID50 (dose reducing by 50% the lethal effects caused by adrenaline)
Description: (§3) The adrenolytic activity of the compounds of the invention was also determined in vivo on the rat in comparison with dihydroergotamine and nicergoline. Table 2 reports the doses in mg/kg (ID50) able to reduce by 50% the lethal effects caused by adrenaline after oral (os) and intravenous (i.v.) administration of these compounds as compared with dihydroergotamine and with nicergoline, i.e., 1,6-dimethyl-8 -(5'-bromonicotinoyloxymethyl)-10 -methoxyergoline (Br. J. Pharmac, 34, 700, 1968).

adrenalin = assay: submaximal inhibiting dosage protecting 80% of rats against adrenalin injected 8 hours after administration; type: in vivo; settings: Rattus norvegicus, po, 8 h, read-out: ID (submaximal inhibiting dosage which protects 80% of the tested animals)
Description: This greater stability was confirmed by the determination of the submaximal inhibiting dosage which protects 80% of the tested animals (rats) against a single dose of 200 mg/Kg of body weight of adrenalin injected 8 hours after administration of the tested compounds according to the invention.

lethal adrenaline dose = assay: percentage of animals protected against lethal adrenaline dose, hours after administration; type: in vivo, rat
Description: as §3
Some of the compounds reported in Table 2 have a long lasting effect of up to 24 hours as shown by the data contained in Table 3.
Percentage of animals protected against lethal adrenaline dose

[4] = acute toxicity LD50 in rats; settings: rat, in vivo
[5] = analgesic activity, hot plate test; type: in vivo
Description: as §1, §2

[6] = 0.1 mg/Kg per os, 1 hour after administration
[7] = 0.1 mg/Kg per os, 2 hours after administration
[8] = 0.5 mg/Kg per os, 0.5 hours after administration
[9] = 0.5 mg/Kg per os, 1 hour after administration
[10] = 0.5 mg/Kg per os, 2 hours after administration
[11] = 0.5 mg/Kg per os, 4 hours after administration
[12] = 0.5 mg/Kg per os, 8 hours after administration

| SMILES | TC50 (concentration producing 50% inhibition (IC50) of the spasmogen effect caused by adrenaline) [2] [μc/ml] | ED50 ([3]; iv) [mg/kg] | ED50 ([3]; po, os) [mg/kg] | ED80 (adrenalin) [mg/kg] | LD50 ([4]; iv) [mg/kg] | LD50 ([4]; po, os) [mg/kg] | other results |
| --- | --- | --- | --- | --- | --- | --- | --- |
| CN1CC(CNc2ncccn2)CC2c3cccc4c3c(cn4C)CC21 (stereo not drawn) [1,6-dimethyl-8β-(2-pyrimidino-aminomethyl)-10α -ergoline] |  |  |  |  |  |  | ED (30-40 mmHg pressure drop) (hypertensive rat; hypertensive rat, per os): 5 to 10 mg/kg; Analgesic Activity, Writhing, relative to D-propoxyphene [1]: 5; Analgesic Activity, Writhing, relative to morphine [1]: 0.5 and 1/2 |
| CN1C[C@H](C(=O)N[C@]2(C)O[C@@]3(O)[C@@H]4CCCN4C(=O)[C@H](Cc4ccccc4)N3C2=O)C[C@@H]2c3cccc4[nH]cc(c34)C[C@H]21 [dihydroergotamine, reference compound] | 0.015 | 0.08 | 15 | > 20 |  |  |  |
| Cc1cc(C)nc(NCC2CC3c4cccc5c4c(cn5C)CC3N(C)C2)n1 (stereo not drawn) [1,6-dimethyl-8β(4,6-dimethyl-2-pyrimidino-aminomethyl)-10α -ergoline] |  |  | 1.25 |  |  |  | % survivors (lethal adrenaline dose; 2.5 mg/Kg per os, 1 hour after administration): 80%; % survivors (lethal adrenaline dose; 2.5 mg/Kg per os, 2 hours after administration): 60%; % survivors (lethal adrenaline dose; 2.5 mg/Kg per os, 4 hours after administration): 30%; % survivors (lethal adrenaline dose; 5 mg/Kg per os, 1 hour after administration): 100%; % survivors (lethal adrenaline dose; 5 mg/Kg per os, 2 hours after administration): 80%; % survivors (lethal adrenaline dose; 5 mg/Kg per os, 4 hours after administration): 50%; % survivors (lethal adrenaline dose; 5 mg/Kg per os, 8 hours after administration): 20%; % survivors (lethal adrenaline dose; 10 mg/Kg per os, 1 hour after administration): 100%; % survivors (lethal adrenaline dose; 10 mg/Kg per os, 2 hours after administration): 100%; % survivors (lethal adrenaline dose; 10 mg/Kg per os, 4 hours after administration): 60% |
| Cc1cnc(NCC2CC3c4cccc5c4c(cn5C)CC3N(C)C2)nc1 (stereo not drawn) [1,6-dimethyl-8β-(5-methyl-2-pyrimidino-aminomethyl)-10 α-ergoline] |  | 0.15 | 0.1 |  | 35 | 140 | ED (30-40 mmHg pressure drop) (hypertensive rat; hypertensive rat, per os): 5 to 10 mg/kg; Analgesic Activity, Hot plate, relative to D-propoxyphene ([5]; D-propoxyphene assigned the value of 1): 5; Analgesic Activity, Hot plate, relative to morphine ([5]; morphine assigned the value of 1): 1; Analgesic Activity, Writhing, relative to D-propoxyphene [1]: 5; Analgesic Activity, Writhing, relative to morphine [1]: 0.5 |
| CN1CC(CNc2ncc([N+](=O)[O-])cn2)CC2c3cccc4c3c(cn4C)CC21 (stereo not drawn) [1,6-dimethyl-8β-(5-nitro-2-pyrimidino-aminomethyl)-10α -ergoline] | 0.007 | 0.09 | 0.04 | 0.5 |  |  | % survivors (lethal adrenaline dose; 0.1 mg/Kg per os, 0.5 hours after administration): 50%; % survivors (lethal adrenaline dose; [6]): 90%; % survivors (lethal adrenaline dose; [7]): 60%; % survivors (lethal adrenaline dose; 0.1 mg/Kg per os, 4 hours after administration): 70%; % survivors (lethal adrenaline dose; 0.1 mg/Kg per os, 8 hours after administration): 60%; % survivors (lethal adrenaline dose; 0.1 mg/Kg per os, 16 hours after administration): 10%; % survivors (lethal adrenaline dose; [8]): 100%; % survivors (lethal adrenaline dose; [9]): 100%; % survivors (lethal adrenaline dose; [10]): 100%; % survivors (lethal adrenaline dose; [11]): 90%; % survivors (lethal adrenaline dose; [12]): 80%; % survivors (lethal adrenaline dose; 0.5 mg/Kg per os, 16 hours after administration): 30%; % survivors (lethal adrenaline dose; 0.5 mg/Kg per os, 24 hours after administration): 20% |
| CN1CC(CNc2ncc(N)cn2)CC2c3cccc4c3c(cn4C)CC21 (stereo not drawn) [1,6-dimethyl-8β-(5-amino-2-pyrimidino-aminomethyl)-10α-ergoline] |  | 0.18 | 0.5 | 1 | 18 | 140 |  |
| COC12CC(CNc3ncc(C)cn3)CN(C)C1Cc1cn(C)c3cccc2c13 (stereo not drawn) [1,6-dimethyl-8β-(5-methyl-2-pyrimidino-aminomethyl)-10α -methoxyergoline] | 0.001 | 0.1 | 0.1 |  | 18 |  |  |
| COC12CC(CNc3ncc(C#N)cn3)CN(C)C1Cc1cn(C)c3cccc2c13 (stereo not drawn) [1,6-dimethyl-8β -(5-cyano-2-pyrimidino-aminomethyl)-10α -methoxyergoline] | 0.0001 | 0.015 | 0.2 | 0.5 | 38 | 160 | % survivors (lethal adrenaline dose; 0.2 mg/Kg per os, 2 hours after administration): 100%; % survivors (lethal adrenaline dose; 0.2 mg/Kg per os, 4 hours after administration): 90%; % survivors (lethal adrenaline dose; [9]): 80%; % survivors (lethal adrenaline dose; [10]): 90%; % survivors (lethal adrenaline dose; [11]): 80%; % survivors (lethal adrenaline dose; [12]): 80%; ED (30-40 mmHg pressure drop) (hypertensive rat; Rattus norvegicus): 1 to 2.5 mg/kg; Analgesic Activity, Writhing, relative to D-propoxyphene [1]: 1; Analgesic Activity, Writhing, relative to morphine [1]: 0.2 |
| COC12CC(CNc3ncc([N+](=O)[O-])cn3)CN(C)C1Cc1cn(C)c3cccc2c13 (stereo not drawn) [1,6-dimethyl-8β-(5-nitro-2-pyrimidino-aminomethyl)-10α -methoxyergoline] | 0.001 | 0.2 | < 0.1 |  | 28 | 200 | % survivors (lethal adrenaline dose; [6]): 70%; % survivors (lethal adrenaline dose; [7]): 80%; % survivors (lethal adrenaline dose; [8]): 100%; % survivors (lethal adrenaline dose; [10]): 100%; % survivors (lethal adrenaline dose; [11]): 90%; % survivors (lethal adrenaline dose; [12]): 40%; ED (30-40 mmHg pressure drop) (hypertensive rat; Rattus norvegicus): 1 to 2.5 mg/kg |
| CN1CC(CNc2ncc(C#N)cn2)CC2c3cccc4c3c(cn4C)CC21 (stereo not drawn) [1,6-dimethyl-8β-(5-cyano-2-pyrimidino-aminomethyl)-10α -ergoline] | 0.005 | 0.05 | 0.05 |  | 25 | 35 | ED (30-40 mmHg pressure drop) (hypertensive rat; Rattus norvegicus): 2.5 to 5 mg/kg |
| CN1CC(CNc2ncc(Cl)cn2)CC2c3cccc4c3c(cn4C)CC21 (stereo not drawn) [1,6-dimethyl-8β-(5-chloro-2-pyrimidino-aminomethyl)-10α -ergoline] |  |  | 0.14 | 1 |  |  |  |
| COC12CC(CNc3ncccn3)CN(C)C1Cc1cn(C)c3cccc2c13 (stereo not drawn) [1,6-dimethyl-8β -(2-pyrimidino-aminomethyl)-10α -methoxyergoline] | 0.005 | 0.2 | 1 |  | 25 | 250 |  |
| COC12CC(CNc3ncc(Br)cn3)CN(C)C1Cc1cn(C)c3cccc2c13 (stereo not drawn) [1,6-dimethyl-8β -(5-bromo-2-pyrimidino-aminomethyl)-10α -methoxyergoline] | 0.005 | 0.08 | 0.32 |  | 50 | 230 |  |
